Experimental data as given in patent US12029728B2, “Small molecules with anti-protozoan activity” (New Mexico Tech University Research Park Corporation, priority 2018, dated 2024).

Legend:
L. major promastigotes = experiment: L. major promastigote viability, propidium iodide flow cytometry; type: cell-based, Leishmania major; conditions: 50 μM, 48 hours at 24° C.
Method: 5×10^5 L. major promastigotes were treated with vehicle control (DMSO), […], 5 μM Compound 5, 50 μM Compound 2, 50 μM Compound 5, or […] for 48 hours at 24° C. Promastigote viability was then assessed via a propidium iodide flow cytometry assay. Propidium iodide is only taken up by dead cells, and the presence of fluorescence in a promastigote sample reflects compound efficacy.

[1] = system: T. cruzi-infected VERO cells; experiment: Treatment of T. cruzi-infected VERO cells, confocal microscopy; type: cell-based, Trypanosoma cruzi; conditions: 5 μM, 5 days
Method: 2×10^4 VERO cells were plated in individual confocal dishes and allowed to adhere for 16 hours at 37° C. […] The T. cruzi-infected dishes were incubated with ˜2×10^6 T. cruzi/mL for 24 hours at 37° C. to allow for internalization of parasites. T. cruzi parasites expressed tdTomato, which allowed for visualization of parasites within cells. After the 24-hour T. cruzi incubation period, extracellular parasites were removed from culture dishes. The cells were washed 3 times with cell culture media (10% fetal bovine serum; 1% penicillin/streptomycin). Designated plates were then incubated with 5 μM Compound 2 or 5 μM Compound 7 for 5 days at 37° C. Cells were then fixed in 2% paraformaldehyde and tdTomato fluorescence in cells was assessed via confocal microscopy.

[2] = system: L. major-infected PBMC cells; experiment: L. major-infected PBMC cells, Hoechst micrographs; type: cell-based, Leishmania major; conditions: 40 μM
Method: Human peripheral blood mononuclear cells (PBMC) were plated onto polylysine-coated glass slides in 24-well plates and allowed to differentiate towards monocyte-derived macrophages (MDMs). Non-adherent cells were removed 48-hours post plating. Adherent monocytes were left to further differentiate for another 48 hours to MDMs. Following the completion of the differentiation period, MDMs were treated with vehicle control (DMSO), […], […], Compound 4, Compound 6, Compound 7, Compound 8, Compound 9, Compound 10, […]

ARPE cells = experiment: MTT cell survival assay, ARPE; type: cell-based; conditions: Homo sapiens, 48 hours at 37° C., read-out: IC50 (GI50), cell survival
Method: (§1) The GI50 (IC50), the concentration at which 50% cell survival is seen upon treatment with a compound, was determined for Compound 2 in Jurkat, U87, HeLa, and ARPE cells. Cells were cultured in 96-well plates and incubated with 50 μM, 25 μM, 12.5 μM, 6 μM, 3 μM, 1.5 μM, or 0 μM of Compound 2 for 48 hours at 37° C. Following the incubation period, a 3-(4,5-dimethylthiazol-2-yl)-2,5-diphenyl tetrazolium bromide (MTT) assay was performed. In brief, a 10% volume of MTT was added to each well. Cells were incubated with MTT for 2 hours, at which time cell supernatant was removed and cells were taken into 100 μL DMSO. The absorbance of cell solutions was then read at 595 nm. A decrease in absorbance indicated a decrease in cell survival.

[3] = system: T. cruzi amastigotes and trypomastigotes; experiment: Viability of tdTomato T. cruzi amastigotes and trypomastigotes, fluorescence; type: cell-based, Trypanosoma cruzi; conditions: 25 μM, 48 hours at 37° C.
Method: The viability of a mixture of T. cruzi amastigotes and trypomastigotes after exposure to 25 μM of the compounds of the disclosure was determined. 2×10^5 parasites/100 μL were plated in 96-well plates. Parasites expressing tdTomato were used to assess parasite viability using fluorescence measurements. Parasites were incubated with 25 μM of the compounds of the disclosure for 48 hours at 37° C. After the incubation period, the viability of amastigotes and trypomastigotes was assessed by measuring the fluorescence intensity at 510 nm-590 nm using a Tecan plate reader, where the presence of fluorescence indicated viable amastigotes/trypomastigotes.

[4] = system: T. cruzi-infected THP-1 cells; experiment: T. cruzi-infected THP-1 derived macrophages, confocal microscopy; type: cell-based, Trypanosoma cruzi; conditions: 2 μM, 7 days
Method: Macrophages derived by differentiation of THP-1 cells with phorbol myristate acetate were plated in confocal dishes (about 5,000 cells per dish) and incubated overnight at 37° C. Dishes were incubated with T. cruzi amastigotes and trypomastigotes expressing tdTomato (˜2×10^5 cells) for 24 hours at 37° C. Uninfected plates served as controls. After the 24-hour T. cruzi incubation period, parasites were removed, and medium was re-plated with DMEM/F12 culture media with 2 μM Compound 2 (or left untreated as a control) for 7 days at 37° C. Following fixation of cells in 4% paraformaldehyde, tdTomato fluorescence (which is indicative of viable T. cruzi) in cells was then assessed via confocal microscopy.

Jurkat cells = experiment: MTT cell survival assay, Jurkat; type: cell-based; conditions: Homo sapiens, 48 hours at 37° C., read-out: IC50 (GI50), cell survival
Method: as §1

U87 cells = experiment: MTT cell survival assay, U87; type: cell-based; conditions: Homo sapiens, U-87 MG, 48 hours at 37° C., read-out: IC50 (GI50), cell survival
Method: as §1

[5] = system: T. gondii-infected ARPE cells; experiment: Treatment of T. gondii-infected ARPE cells, imaging; type: cell-based, Toxoplasma gondii; conditions: for T. gondii in ARPE cells: 4 days
Method: ARPE cells were cultured at confluency in a 24 well plate. Cells were incubated with T. gondii (ATCC PRA-310) for 1 hour at 37° C. to allow for T. gondii internalization. After the 1-hour T. gondii incubation period, extracellular T. gondii was removed from culture and cells were washed 3 times with cell media. […] Cells were visualized using an EVOS cell imaging system. The effect of a 3-day Compound 2 treatment on T. gondii-infected ARPE cells was also investigated. 2×10^4 ARPE cells were infected with ˜1×10^6 T. gondii parasites as described in the above paragraph. Cells were then incubated with 5 μM Compound 2 for 3 days at 37° C. Following incubation with Compound 2, cells were washed 3 times in cell media, fixed with 4% paraformaldehyde, stained with DAPI, and visualized with confocal microscopy.

O=C(NO)C(c1ccccc1)c1c(-c2ccc3ccccc3c2)[nH]c2ccccc12 (stereo not drawn) [Compound 2, N-hydroxy-2-(2-(naphthalen-2-yl)-1H-indol-3-yl)-2-phenylacetamide]
efficacy on L. major promastigote survival (L. major promastigotes): higher efficacy than MTF or the vehicle control
T. cruzi infection in VERO cells [1]: eradication of T. cruzi infection
number of parasites/PBMC cell [2]: decreases the number of parasites/PBMC cell
IC50 (ARPE cells): 14.8 ± 1.13 µM
toxicity to T. cruzi amastigotes and trypomastigotes [3]: most toxic
intracellular proliferation of T. cruzi [4]: prevented intracellular proliferation of T. cruzi
IC50 (Jurkat cells): 7.97 ± 1.06 µM
IC50 (U87 cells): 11.5 ± 0.41 µM
T. gondii in ARPE cells ([5]; 2 μM): clearance of T. gondii from ARPE cells
T. gondii infection of ARPE cells ([5]; 5 μM, 3 days): cleared ARPE cells of T. gondii infection
T. gondii in ARPE cells ([5]; 5 μM): clearance of T. gondii from ARPE cells
T. gondii infection of ARPE cells ([5]; 5 μM, 5 days): cleared ARPE cells of T. gondii infection
